Assay results from ChEMBL document CHEMBL2163249, “Exploration of natural compounds as sources of new bifunctional scaffolds targeting cholinesterases and beta amyloid aggregation: the case of chelerythrine” (Bioorg Med Chem, 2012).

Key:
[1] = target: Acetylcholinesterase (Electrophorus electricus) (UniProt O42275); settings: at 2 mg/mL
Description: Inhibition of electric eel AChE at 2 mg/ml by Ellman's method

[2] = target: Cholinesterase (Equus caballus) (UniProt P81908); settings: at 2 mg/mL
Cholinesterase (Equus caballus), sequence (P81908 whole entry): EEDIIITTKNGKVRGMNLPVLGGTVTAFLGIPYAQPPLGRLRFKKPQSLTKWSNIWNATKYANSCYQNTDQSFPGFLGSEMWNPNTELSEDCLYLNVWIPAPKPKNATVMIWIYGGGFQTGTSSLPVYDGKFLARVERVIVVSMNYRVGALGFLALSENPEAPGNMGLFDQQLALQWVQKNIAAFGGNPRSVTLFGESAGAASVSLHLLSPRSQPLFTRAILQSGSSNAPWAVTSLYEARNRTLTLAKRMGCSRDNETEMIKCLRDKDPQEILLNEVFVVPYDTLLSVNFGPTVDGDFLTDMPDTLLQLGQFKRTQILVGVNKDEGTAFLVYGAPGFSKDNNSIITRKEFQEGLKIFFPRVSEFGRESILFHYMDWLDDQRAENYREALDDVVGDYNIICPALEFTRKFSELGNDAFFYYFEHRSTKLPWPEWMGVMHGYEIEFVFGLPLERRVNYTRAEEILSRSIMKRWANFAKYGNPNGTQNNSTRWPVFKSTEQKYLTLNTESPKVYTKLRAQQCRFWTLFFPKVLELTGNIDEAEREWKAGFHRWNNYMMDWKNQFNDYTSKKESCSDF
Description: Inhibition of horse BChE at 2 mg/ml by Ellman's method

Acetylcholinesterase (Electrophorus electricus), sequence (O42275 24-633 limits assumed): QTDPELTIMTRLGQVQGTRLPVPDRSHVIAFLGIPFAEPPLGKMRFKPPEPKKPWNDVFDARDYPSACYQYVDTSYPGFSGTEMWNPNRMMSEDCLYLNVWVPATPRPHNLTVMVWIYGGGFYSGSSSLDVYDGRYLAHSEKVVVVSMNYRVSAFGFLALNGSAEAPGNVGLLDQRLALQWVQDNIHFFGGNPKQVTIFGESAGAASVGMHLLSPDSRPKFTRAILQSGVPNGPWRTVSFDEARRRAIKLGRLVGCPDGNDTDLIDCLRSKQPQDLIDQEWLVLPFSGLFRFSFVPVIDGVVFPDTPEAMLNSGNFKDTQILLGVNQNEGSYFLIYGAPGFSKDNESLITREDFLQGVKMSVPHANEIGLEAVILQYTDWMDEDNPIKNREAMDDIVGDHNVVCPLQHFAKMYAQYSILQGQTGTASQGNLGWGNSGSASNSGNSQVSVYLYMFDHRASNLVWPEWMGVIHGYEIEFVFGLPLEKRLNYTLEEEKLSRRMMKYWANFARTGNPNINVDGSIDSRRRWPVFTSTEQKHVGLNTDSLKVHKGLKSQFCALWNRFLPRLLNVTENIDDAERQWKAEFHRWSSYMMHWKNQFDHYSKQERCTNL

SMILES | inhibition [1] [%] | inhibition [2] [%]
CCCC[N+]1(C)[C@@H]2C[C@@H](OC(=O)[C@H](CO)c3ccccc3)C[C@H]1[C@@H]1O[C@@H]12 (stereo partly specified) | 22.5 | -4.42
O=C1Nc2ccccc2/C1=C1/Nc2ccccc2C1=O | 7.97 | 13.7
COc1ccc2c(OC)c3ccoc3nc2c1OC | 39.3 | 6.79
c1cc2c(cc1[C@H]1OC[C@@H]3[C@H]1CO[C@H]3c1ccc3c(c1)OCO3)OCO2 | 4.7 | -3.5
O=C1/C(=C/c2ccc(O)c(O)c2)Oc2cc(O)ccc21 | 24.4 | -2.22
C[C@@]12CCc3occc3[C@H]1CC[C@@]13C[C@@H](CC[C@H]12)[C@@](O)(CO)C3 | -1.43 | 13.8
COc1cc(/C=C/C(=O)CC(=O)/C=C/c2ccc(O)c(OC)c2)ccc1O | -2.21 | 2.41
CCOC(=O)[C@H]1O[C@@H]1C(=O)N[C@@H](CC(C)C)C(=O)NCCC(C)C | 1.24 | -0.73
COc1ccc2cc1Oc1ccc(cc1)C[C@@H]1c3cc(c(OC)cc3CCN1C)Oc1c(OC)c(OC)cc3c1[C@H](C2)N(C)CC3 | -1.02 | 21.9
C=C(C)[C@@H]1CC[C@]2(C(=O)O)CC[C@]3(C)[C@H](CC[C@@H]4[C@@]5(C)CC[C@H](O)C(C)(C)[C@@H]5CC[C@]43C)[C@@H]12 | -5.33 | 2.88
O=C(O)C1=C[C@@H](O)[C@@H](O)[C@H](O)C1 | -8.33 | -4.96
COC1=CC(=O)C[C@@H](C)[C@]12Oc1c(Cl)c(OC)cc(OC)c1C2=O | -8.73 | -4.49
C[C@H]1O[C@@H](Oc2c(-c3cc(O)c(O)c(O)c3)oc3cc(O)cc(O)c3c2=O)[C@@H](O)[C@@H](O)[C@@H]1O | 20.9 | -2.1
COc1cc2c(cc1O)C[C@H]1c3c(cc(O)c(OC)c3-2)CCN1C | 9.51 | 1.24
CSC(=S)NCc1c[nH]c2ccccc12 | -0.26 | -5.64
CCCCC[C@H](O)/C=C/[C@H]1[C@H](O)CC(=O)[C@@H]1C/C=C\CCCC(=O)O | 14.8 | -2.38
COc1cc(C(=O)OC2CC3CCC(C2)N3C)ccc1O (stereo unspecified) | 31.5 | 6.73
CC1=C2[C@H]3OC(=O)[C@@H](C)[C@@H]3CC[C@@]2(C)C=CC1=O | 3.63 | -3.62
CC1(C)CC[C@]2(C(=O)O)CC[C@]3(C)C(=CC[C@@H]4[C@@]5(C)CC[C@H](O)C(C)(C)[C@@H]5CC[C@]43C)[C@@H]2C1 | 10.2 | 0.92
O=C1C[C@@H](c2ccc(O)c(O)c2)Oc2cc(O)cc(O)c21 | 20.2 | -0.11
O=c1oc2c(O)c(O)cc3c(=O)oc4c(O)c(O)cc1c4c23 | -6.13 | 4.4
C[C@@H]1O[C@@H](OC[C@H]2O[C@@H](Oc3cc(O)c4c(=O)cc(-c5ccc(O)cc5)oc4c3)[C@H](O)[C@@H](O)[C@@H]2O)[C@H](O)[C@H](O)[C@H]1O | 23 | -5.05
CC(C)C[C@H](NC(=O)[C@H]1O[C@@H]1C(=O)O)C(=O)NCCCCN=C(N)N | -7.43 | 12.1

SMILES | inhibition [1] [%] | inhibition [2] [%]
COc1c2c3c4c(c(OC)c(=O)c5c(O)cc(OC)c(c6c(OC)cc(O)c(c1=O)c63)c54)[C@@H](C(C)=O)[C@@](C)(O)C2 (relative stereo) | 5.56 | 1.53
CC(=O)O[C@@H]1CC[C@@]2(C)[C@H](C1)[C@H](OC(C)=O)C[C@@H]1[C@@H]2C[C@H]2[C@@H]3CN4C[C@H](C)CC[C@H]4[C@H](C)[C@H]3CC[C@@]12O | 26.8 | 4.14
CC1=CC(=O)c2c(O)cccc2C1=O | 31.8 | 9.94
O=C(O)Cc1c[nH]c2ccccc12 | 2.98 | -7.42
C[C@H]1[C@H](OC(=O)CCC(=O)O)O[C@@H]2O[C@@]3(C)CC[C@H]4[C@H](C)CC[C@@H]1[C@@]24OO3 | -5.55 | 4.77
O=c1c(O)c(-c2ccc(O)cc2)oc2cc(O)cc(O)c12 | 20 | 5.23
CN1CCc2cc(O)c(O)cc2C1Cc1cc(O)c(O)cc1Br (racemic) | 27.2 | 13.4
CC[C@@H]1/C=C/C=C/C[C@H](C)[C@H](O)[C@](C)(O)C(=O)[C@H](C)[C@@H](O)[C@H](C)C(=O)[C@H](C)[C@@H](O)[C@H](C)/C=C/C(=O)O[C@H]2[C@@H](C)[C@@H](CC1)O[C@@]1(CC[C@@H](C)[C@@H](C[C@H](C)O)O1)[C@@H]2C | -5.62 | 1.56
C[C@H]1C(=O)O[C@@H]2CCN3CC=C(COC(=O)[C@](C)(O)[C@]1(C)O)[C@H]23 | 19.5 | 4.32
C[C@@H]1C[C@H]2CC[C@H](O2)[C@H](C)C(=O)O[C@@H](C)C[C@@H]2CC[C@@H](O2)[C@@H](C)C(=O)O[C@H](C)C[C@H]2CC[C@@H](O2)[C@H](C)C(=O)O[C@@H](C)C[C@@H]2CC[C@@H](O2)[C@@H](C)C(=O)O1 | 16.4 | -1.31
CN(C)CCc1ccc(O)cc1 | -4.35 | -2.06
O=c1c(O)c(-c2ccc(O)c(O)c2)oc2cc(O)ccc12 | 27.5 | 2.06
C=C(C)[C@H]1Cc2c(ccc3c2O[C@@H]2COc4cc(OC)c(OC)cc4[C@@H]2C3=O)O1 | 16.4 | 6.43
CCCCC[C@H](O)CC(=O)CCc1ccc(O)c(OC)c1 | 1.06 | -2.06
CC[C@]12CCCN3CCc4c(n(c5ccccc45)C(=O)C1)[C@@H]32 | 12.1 | 0.04
COc1cc(=O)oc(/C=C/C=C/C=C/C(C)=C/[C@@]2(C)O[C@H](C)[C@](C)(O)[C@H]2O)c1C | 27.1 | 16.6
O=c1c(-c2ccc(O)cc2)coc2cc(O)cc(O)c12 | 7.3 | 10.5
CCCCCCC(=O)CCCCCC/C=C/C[C@@H](O)[C@H](O)[C@@](N)(CO)C(=O)O | -8.15 | 1.5
COc1cccc2c1C(=O)c1c(O)c3c(c(O)c1C2=O)C[C@@](O)(C(=O)CO)C[C@@H]3O[C@H]1C[C@H](N)[C@H](O)[C@H](C)O1 | 10.4 | 1.2
COc1ccc(-c2coc3cc(O)cc(O)c3c2=O)cc1 | 2.29 | -9.1
CN1Cc2c(ccc3c2OCO3)[C@@H]2[C@H]1c1cc3c(cc1C[C@@H]2O)OCO3 | 29.8 | 6.72
COC1=C[C@@H]2[C@@H]3Cc4ccc(OC)c(O)c4[C@]2(CCN3C)CC1=O | 4.63 | 5.14
COc1c(C)c2c(c(O)c1C/C=C(\C)CCC(=O)O)C(=O)OC2 | -6.25 | -7.04

SMILES | inhibition [1] [%] | inhibition [2] [%]
C/C1=C/CCC(C)(O)/C=C\C(C(C)C)C(OC(=O)c2ccc(O)cc2)C1 (stereo unspecified) | 23.7 | -0.77
O=C(O)/C=C/c1ccc(O)c(O)c1 | 2.2 | 0.67
O=C(/C=C/c1ccc(O)c(O)c1)c1ccc(O[C@@H]2O[C@H](CO)[C@@H](O)[C@H](O)[C@H]2O)c(O)c1O | 22.2 | 2.03
COc1cc(CNC(=O)CCCC/C=C/C(C)C)ccc1O | -6.53 | 6.29
CC(=O)O[C@H]1C(=O)[C@@]2(C)[C@H]([C@H](OC(=O)c3ccccc3)[C@]3(O)C[C@H](OC(=O)[C@H](O)[C@@H](NC(=O)c4ccccc4)c4ccccc4)C(C)=C1C3(C)C)[C@]1(OC(C)=O)CO[C@@H]1C[C@@H]2O | 12.5 | -2.88
C=C(C)[C@@H]1[C@H]2OC(=O)[C@@H]1[C@]1(O)C[C@H]3O[C@]34C(=O)O[C@H]2[C@]14C | 11.4 | -3.55
CN(C)Cc1c[nH]c2ccccc12 | 15.3 | 10.6
COc1cc(O)c(C(=O)/C=C/c2ccccc2)c(OC)c1 | 27.1 | 4.56
C[N+]1(C)CCC[C@H]1C(=O)[O-] | -9.74 | -3.98
COc1c2c(nc3ccccc13)OC(C(C)(O)CO)C2 (stereo unspecified) | 22.5 | -2.71
C=C1[C@H]2C[C@@]3([C@@H]1O)[C@@H](CC2=O)[C@]12[C@@H]4C[C@H]3[C@H]1N(CC)C[C@]4(C)CC[C@@H]2O | 26.3 | 1.01
COc1cc(O)c2c(=O)c(O)c(-c3ccc(O)c(O)c3)oc2c1 | 23.7 | 3.5
C/C=C(/C)C(=O)O[C@H]1CC[C@@]2(C)[C@@H]3CC[C@H]4[C@]5(O)C[C@H](O)[C@@]6(O)[C@@H](CN7C[C@@H](C)CC[C@H]7[C@@]6(C)O)[C@]5(O)C[C@@]42O[C@]13O | -3.72 | 6.44
Cn1cnc2c1c(=O)[nH]c(=O)n2C | 39.4 | 3.88
COc1c(O)cc(O)c2c(=O)cc(-c3ccccc3)oc12 | -1.48 | -5.86
COc1ccc(/C=C/c2cc(O)cc(O[C@@H]3O[C@H](CO)[C@@H](O)[C@H](O)[C@H]3O)c2)cc1O | -3.62 | -4.38
O=C(/C=C/C=C/c1ccc2c(c1)OCO2)N1CCCCC1 | -0.1 | 16.8
O=C1c2c(O)cc(O)cc2O[C@H](c2ccc(O)c(O)c2)[C@H]1O | 17.8 | 0.97
COc1ccc(C(=O)O[C@H]2CC[C@@]3(C)[C@@H]4CC[C@H]5[C@]6(O)C[C@H](O)[C@@]7(O)[C@@H](CN8C[C@@H](C)CC[C@H]8[C@@]7(C)O)[C@]6(O)C[C@@]53O[C@]24O)cc1OC | 21.8 | -4.13
c1coc(CNc2ncnc3[nH]cnc23)c1 | -5.12 | 3.13
CCOC(=O)Oc1c(OC)cc(C(=O)O[C@@H]2C[C@@H]3CN4CCc5c([nH]c6cc(OC)ccc56)[C@H]4C[C@@H]3[C@H](C(=O)OC)[C@H]2OC)cc1OC | -6.1 | -6.04
CC(C)[C@@]1(NC(=O)[C@@H]2C[C@@H]3c4cccc5[nH]cc(c45)C[C@H]3N(C)C2)O[C@@]2(O)[C@@H]3CCCN3C(=O)[C@H](Cc3ccccc3)N2C1=O | -1.54 | 0.35
